Structures are written as SMILES.

The test system of experiment [1] is RAW 264 cells. The experiment is described as follows: Growth/proliferation of RAW 264 cells in vitro. As to conditions: FIG. 6; 48 hours after treatment; proliferation in buffer = 100%. Type of experiment: cell-based, murine. How it is done: The effect of ISA on the growth of RAW 264 cells was determined. RAW 264 cells, which are derived from the murine macrophage cell lines, were plated at 2×10^4 cells per well in 24-well plates and allowed to grow for approximately 24 hours in DMEM. The cells were then treated with various compositions of the ISA drug, specifically, free ISA, the ISA−Ca^+2 salt, and ISA encapsulated in a nanoparticle (“ISA NP”). As discussed supra, the ISA NP contains Ca^+2 to lower the solubility of the bisphosphonate and increase its entrapment efficiency. For comparison purposes, the RAW 264 cells were also treated with blank NP, i.e., nanoparticles with no drug embedded therein. The cells were then analyzed 48 hours after treatment. Analysis included cell counting by Coulter counter and cell viability by tryphan blue exclusion assay.
The effect of ISA compositions on the growth of RAW 264 cells in vitro is illustrated in FIG. 6. The cell proliferation in buffer only was termed as 100%. The data represented is the mean with a ±SD (6≦N≦27).
The following formulations were evaluated: Ca^+2-ISA salt, Ca^+2-ISA salt+PVA, and Ca^+2-ISA adsorbed on the surface of a blank NP. The cell proliferation in the buffer only was termed as 100%. N.B., a lower column represents higher potency.

Experiment [2] has as its system neointimal formation in balloon-injured rat carotid artery. Kind of experiment: Rat carotid catheter (balloon) injury model of restenosis. Type of experiment: in vivo. As to conditions: Example 2; 1.5 and 15 mg/kg day -1 and/or day +6; 14 days post injury; FIG. 4. The method, then:
Animals were obtained and housed in the animal facilities of the Faculty of Medicine, The Hebrew University of Jerusalem, conforming to the standards for care and use of laboratory animals of the Hebrew University of Jerusalem. Male rats of Sabra strain weighing 350-420 g were used. The animals were fed standard laboratory chow and tap water ad libitum. All in vivo experiments were conducted under general anaesthesia achieved with 80 mg/kg ketamine and 5 mg/kg xylazine administered IP.
The distal left common and external carotid arteries were exposed through a midline incision in the neck. […]
The slides were examined microscopically by an investigator blinded to the type of the experimental group. Six to eight sections in each slide were evaluated by computerized morphometric analysis and the averaged section data were further used as a representative of a whole slide for comparisons between groups. The residual lumen, the area bounded by the internal elastic lamina (original lumen), and the area circumscribed by the external elastic lamina (“total arterial area”) were measured directly. The degree of neointimal thickening was expressed as the ratio between the area of the neointimal and the original lumen (% stenosis), and as the ratio between the neointimal area to the area of the media (N/M). […]

For `Nc1nccc[n+]1CC(P(=O)([O-])O)P(=O)(O)O` (centres unmarked) [free ISA, 2-(2-aminopyrimidinio) ethylidene-1,1-bisphosphonic acid betaine], the “growth of RAW 264 cells” value in experiment [1] is on record as “only a minor effect”.

With `O=P(O)(O)C(Cl)(Cl)P(=O)(O)O` [free clodronate in solution, (dichloromethylene) diphosphonic acid], the mean neointimal formation entry in experiment [2] was “marked neointimal formation”.

(Values after patent US6984400B2, “Method of treating restenosis using bisphosphonate nanoparticles” (Yissum Research Development Company of the Hebrew …, priority 1998, dated 2006).)
